These results are taken from patent EP4692059A1, “CATIONIC LIPID HAVING DISULFIDE BOND” (Tohoku University, priority 2023, dated 2024).

Series [1] can be described thus: Particle size, PdI and zeta potential of mRNA-encapsulating LNPs by dynamic light scattering (Experimental Example 2). Type of series: physicochemical. As to the method:
An acidic buffer solution (total amount: 1080 µL) of nucleic acid was prepared by weighing 7.2 µg of mRNA solution (0.6 mg/mL) in a 5 mL tube and adding acidic malate buffer (20 mM, pH 3.0).
An acidic buffer solution of nucleic acid and an ethanol solution of lipid were each weighed in a syringe.
The particle size, PdI (Polydispersity Index), and zeta potential of the mRNA-encapsulating LNP prepared by the method of the above-mentioned 1 were measured by a dynamic light scattering method (Zetasizer Nano; Malvern).

Another series concerns liver. The experiment in a line: In vivo gene expression, luciferase luminescence in the liver after tail vein administration (Experimental Example 4). The following applies: BALB/c mouse, mRNA 0.05 mg/kg; for amount of luminescence (photons/sec) in liver: tail vein, 4.5 hr after administration, LNP cationic lipid:DOPC:Chol:DMG-PEG2k = 52.5:7.5:40:1.5, prepared as in Experimental Example 2; for relative amount of luminescence: liver luminescence relative to cationic lipid of Comparative Example. Here is the method:
LNP encapsulating mRNA that expresses luciferase (cationic lipid:DOPC:Chol:DMG-PEG2k = 52.5:7.5:40:1.5 (molar ratio)) was prepared by the method described in [Experimental Example 2], 1.
The prepared each mRNA-encapsulating LNP dispersion was administered from the tail vein of BALB/c mouse (male, 5-week-old). The dose of mRNA was set to 0.05 mg per 1 kg body weight of the mouse, and the dose of the mRNA-encapsulating LNP dispersion was set to 10 µL per 1 g body weight of the mouse. After 4.5 hr from the administration of the mRNA-encapsulating LNP dispersion, a PBS solution of D-luciferin potassium was administered into the abdominal cavity of the mouse. The dose of D-luciferin potassium was set to 3 mg per mouse, and the dose of the PBS solution of D-luciferin potassium was set to 200 µL per mouse. After 15 min from the administration of the PBS solution of D-luciferin potassium, the mouse was euthanized, and the liver was isolated. The luminescence in the liver was quantified using an in vivo imaging system (IVIS) with an exposure of 10 sec. The amount of luminescence in the liver was quantified by image analysis using Live Imaging software attached to IVIS. The amount of luminescence (photons/sec) was calculated from the acquired image and used as an index of gene expression activity. The cationic lipids used, the luminescence intensity in the liver, and the relative luminescence intensity (= luminescence intensity in the liver when cationic lipid of Example was used/luminescence intensity in the liver when cationic lipid of Comparative Example was used) are shown in Table 7-1 to Table 7-3. "E+0a" (a: integer) indicated in Table 7-1 to Table 7-3 means "10^a". For example, "3.94E+09" means "3.94×10^9". […]

The next series deals with HeLa cells. Kind of series: In vitro gene expression in HeLa cells (luciferase mRNA-encapsulating LNP, cumulative luminescence in 24 hr). The following applies: for cumulative luciferase luminescence intensity (RLU) in 24 hr: LNP cationic lipid:DOPC:Chol:DMG-PEG2k = 50:10:40:1, mRNA 0.2 µg per dish, E+0a means 10^a; for relative luminescence intensity: cumulative intensity in 24 hr relative to cationic lipid of Comparative Example.

Series [2] is described as follows: Particle size, PdI and zeta potential of mRNA-encapsulating LNPs by dynamic light scattering (Experimental Example 6). Type of series: physicochemical. The note with it: mRNA-encapsulating LNP; for zeta potential (mV): cationic lipid:DOPC:Chol=49:7.5:42.5:1, dispersion in TBS (Tables 8-1, 8-2); for PdI / particle size (nm): cationic lipid:DOPC:Chol=49:7.5:42.5:1, dispersion in TBS, dynamic light scattering (Tables 8-1, 8-2). As to the method:
An acidic buffer solution (total amount: 1300 µL) of nucleic acid was prepared by weighing 6.5 µg of mRNA solution (0.6 mg/mL) in a 5 mL tube and adding acidic citrate buffer (20 mM, pH 5.0).
An acidic buffer solution of nucleic acid and an ethanol solution of lipid were each weighed in a syringe. […] The obtained concentrate was diluted with TBS to a lipid concentration of 2 mM to give a dispersion containing LNP.
The particle size, PdI (Polydispersity Index), and zeta potential of the mRNA-encapsulating LNP prepared by the method of the above-mentioned 1 were measured by a dynamic light scattering method (Zetasizer Nano; Malvern). […]

Setting [3] is: mRNA-encapsulating LNP, cationic lipid:DOPC:Chol = 50:10:40 (molar ratio) + DMG-PEG2k about 1 mol, Polydispersity Index, dynamic light scattering.
[4] abbreviates: mRNA-encapsulating LNP, cationic lipid:DOPC:Chol = 50:10:40 (molar ratio) + DMG-PEG2k about 1 mol, Zetasizer Nano.
Where [5] appears, read: mRNA-encapsulating LNP, cationic lipid:DOPC:Chol = 50:10:40 (molar ratio) + DMG-PEG2k about 1 mol, dynamic light scattering.
Where [6] appears, read: mRNA-encapsulating LNP containing the cationic lipid, dispersion in PBS (Table 5-3).
The mark [7] stands for this setting: mRNA-encapsulating LNP containing the cationic lipid, dispersion in PBS, dynamic light scattering (Table 5-3).

Protocol for HeLa cells: LNP encapsulating mRNA that expresses luciferase (cationic lipid:DOPC:Chol:DMG-PEG2k = 50:10:40:1 (molar ratio)) was prepared by the method described in [Experimental Example 2], 1.
HeLa cells, which are human cervical cancer cells, were seeded in a 3.5 cm dish at 5.0×10^4 cells/2 mL/Dish 24 hours before transfection. After 24 hr, the medium was changed to a culture medium (D-MEM) containing 0.1 mM D-luciferin. The prepared mRNA-encapsulating LNP was diluted with PBS to an mRNA concentration of about 1 µg/mL. The diluted mRNA-encapsulating LNP solution (about 200 µL, mRNA: 0.2 µg) was added to a 3.5 cm dish, and set in an incubator luminometer KronosDio. The luminescence intensity of luciferase was measured for 2 min every one hour. The cumulative luciferase luminescence intensity in 24 hr was calculated from the obtained time change of expression. […] In Comparative Example, the cationic lipid described in Table 2 was used.

For `CCCCCCCC/C=C\CCCCCCCC(=O)Oc1ccc(CC(=O)OCCC2CCN(CCSSCCN3CCC(CCOC(=O)Cc4ccc(OC(=O)CCCCCCC/C=C\C[C@H](CCCCCC)OC(C)=O)cc4)CC3)CC2)cc1` [compound 1], the PdI in series [1] (setting [3]) is recorded as 0.070. Also, in series [1] (setting [4]), the “zeta potential (mV)” value is on record as -3.79 mV. Further, in series [1] (setting [5]), the “particle size (nm)” value was 96.63 nm. In addition, in the series on liver, the “amount of luminescence (photons/sec) in liver” value (“amount … (photons/sec) in liver” for short) is given as 3.94E+09 photons/sec and the “relative amount of luminescence” value was determined as 2.59. In the series with HeLa cells, the “cumulative luciferase luminescence intensity (RLU) in 24 hr” value came out at 2.61E+07 RLU and the relative luminescence intensity came to 1.42.
As to `CCCCCCCC/C=C\CCCCCCCC(=O)Oc1ccc(CC(=O)OCCC2CCN(CCSSCCN3CCC(CCOC(=O)Cc4ccc(OC(=O)CCCC(=O)OC[C@H](COC(=O)CCCCCCC)OC(=O)CCCCCCC)cc4)CC3)CC2)cc1` [compound 5], the PdI in series [1] (setting [3]) was found to be 0.112. Moreover, in series [1] (setting [4]), the “zeta potential (mV)” value is recorded as -4.68 mV. Besides, the “particle size (nm)” value in series [1] (setting [5]) is 106.10 nm. Further, in the series with liver, the “amount … (photons/sec) in liver” value is reported as 3.76E+09 photons/sec and the “relative amount of luminescence” value stood at 2.48. In the series on HeLa cells, the “cumulative luciferase luminescence intensity (RLU) in 24 hr” value worked out at 4.16E+07 RLU and the relative luminescence intensity is listed as 2.25.
Consider `CCCCCCCC/C=C\CCCCCCCC(=O)Oc1ccc(CC(=O)OCCC2CCN(CCSSCCN3CCC(CCOC(=O)Cc4ccc(OC(=O)CCCC(=O)OC[C@H](COC(=O)CCCCC)OC(=O)CCCCC)cc4)CC3)CC2)cc1` [compound 13], for which the PdI in series [1] (setting [3]) amounted to 0.073. Also, the “zeta potential (mV)” value in series [1] (setting [4]) is listed as -3.63 mV. For the same compound, in series [1] (setting [5]), the “particle size (nm)” value stood at 94.42 nm. For the same compound, in the series with HeLa cells, the “cumulative luciferase luminescence intensity (RLU) in 24 hr” value came to 1.24E+08 RLU and the relative luminescence intensity is 6.72.
As to `CCCCCC[C@@H](C/C=C\CCCCCCCC(=O)Oc1ccc(CC(=O)OCCC2CCN(CCSSCCN3CCC(CCOC(=O)Cc4ccc(OC(=O)CCCC(=O)OC[C@H](COC(C)=O)OC(C)=O)cc4)CC3)CC2)cc1)OC(=O)CCCCC` [compound 17], the PdI in series [1] (setting [3]) is given as 0.061. Moreover, the “zeta potential (mV)” value in series [1] (setting [4]) is listed as -5.19 mV. The “particle size (nm)” value in series [1] (setting [5]) is recorded as 127.90 nm. Moreover, in the series on liver, the “amount … (photons/sec) in liver” value was found to be 3.73E+09 photons/sec and the “relative amount of luminescence” value is reported as 2.45. Besides, in the series on HeLa cells, the “cumulative luciferase luminescence intensity (RLU) in 24 hr” value is 5.18E+07 RLU and the relative luminescence intensity is 2.81.
With `CCCCCC/C=C\COC(=O)CCCC(=O)Oc1ccc(CC(=O)OCCC2CCN(CCSSCCN3CCC(CCOC(=O)Cc4ccc(OC(=O)CCCC(=O)OC/C=C\CCCCCC)cc4)CC3)CC2)cc1` [compound 41], in series [1] (setting [3]), the PdI stood at 0.067. Moreover, the “zeta potential (mV)” value in series [1] (setting [4]) is reported as -2.30 mV. Further, the “particle size (nm)” value in series [1] (setting [5]) is recorded as 123.30 nm. In the series with liver, the “amount … (photons/sec) in liver” value was determined as 1.73E+09 photons/sec and the “relative amount of luminescence” value was found to be 1.14.
For `CCCCCC/C=C\COC(=O)CCCC(=O)Oc1ccc(CC(=O)OCCC2CCN(CCSSCCN3CCC(CCOC(=O)Cc4ccc(OC(=O)CCCCCCC/C=C\CCCCCCCC)cc4)CC3)CC2)cc1` [compound 43], the PdI in series [1] (setting [3]) was found to be 0.072; in series [2], 0.17. The “zeta potential (mV)” value in series [1] (setting [4]) was -3.98 mV; in series [2] it was -5.9 mV. Further, the “particle size (nm)” value in series [1] (setting [5]) was found to be 90.46 nm; in series [2], 128.2 nm.
Turning to `CCCCCCCC/C=C\CCCCCCCC(=O)Oc1ccc(CC(=O)OCCC2CCN(CCSSCCN3CCC(CCOC(=O)Cc4ccc(OC(=O)CCCC(=O)N(CCCCCC)CCCCCC)cc4)CC3)CC2)cc1` [compound 124], in series [1] (setting [6]), the “zeta potential (mV)” value is given as -5.07 mV. In series [1] (setting [7]), the PdI was determined as 0.111 and the “particle size (nm)” value was 96.63 nm. Moreover, in the series with liver, the “amount … (photons/sec) in liver” value came out at 5.12E+09 photons/sec and the “relative amount of luminescence” value was determined as 3.37.
For `CCCCCCCC/C=C\CCCCCCCC(=O)Oc1ccc(CC(=O)OCCC2CCN(CCSSCCN3CCC(CCOC(=O)Cc4ccc(OC(=O)CCCCCCCCCCC(CCCCCC)OC(=O)CCCCCCC)cc4)CC3)CC2)cc1` (centres unmarked) [compound 145], the “zeta potential (mV)” value in series [1] (setting [6]) is on record as -2.39 mV. In addition, in series [1] (setting [7]), the PdI worked out at 0.034 and the “particle size (nm)” value is reported as 83.1 nm. Besides, in the series on liver, the “amount … (photons/sec) in liver” value turned out to be 6.65E+09 photons/sec and the “relative amount of luminescence” value is 4.37. In addition, in series [2], the “zeta potential (mV)” value is -3.79 mV, the PdI amounted to 0.082 and the “particle size (nm)” value turned out to be 122.1 nm.
For `CCCCCCC#CCCOC(=O)CCCC(=O)Oc1ccc(CC(=O)OCCC2CCN(CCSSCCN3CCC(CCOC(=O)Cc4ccc(OC(=O)CCCCCCCC(=O)OC(CCCCCCCC)CCCCCCCC)cc4)CC3)CC2)cc1` [compound 148], the PdI in series [1] (setting [3]) is reported as 0.063; in series [2] it was 0.15. Besides, the “zeta potential (mV)” value in series [1] (setting [4]) is on record as -4.31 mV; in series [2], -7.4 mV. Further, the “particle size (nm)” value in series [1] (setting [5]) is on record as 92.96 nm; in series [2], 133.6 nm.
On to `CCCCCCC#CCCOC(=O)CCCC(=O)Oc1ccc(CC(=O)OCCC2CCN(CCSSCCN3CCC(CCOC(=O)Cc4ccc(OC(=O)CCCCCCC/C=C\CCCCCCCC)cc4)CC3)CC2)cc1` [compound 149], for which the values for the PdI in series [1] (setting [3]) and in series [2] were 0.059 and 0.15, respectively. Further, the “zeta potential (mV)” value in series [1] (setting [4]) is -6.03 mV; in series [2], -6.2 mV. In addition, the “particle size (nm)” value worked out at 97.44 nm in series [1] (setting [5]) and 123.1 nm in series [2].
For the compound `CCCCCCC#CCCOC(=O)CCCC(=O)Oc1ccc(CC(=O)OCCC2CCN(CCSSCCN3CCC(CCOC(=O)Cc4ccc(OC(=O)CCCC(=O)Oc5c(C)c(C)c6c(c5C)CCC(C)(CCCC(C)CCCC(C)CCCC(C)C)O6)cc4)CC3)CC2)cc1` (centres unmarked) [compound 150], the figures for the PdI in series [1] (setting [3]) and in series [2] were 0.071 and 0.11, respectively. For the same compound, the “zeta potential (mV)” value in series [1] (setting [4]) is listed as -2.14 mV; in series [2] it was -8.1 mV. Also, the “particle size (nm)” value in series [1] (setting [5]) is listed as 94.66 nm; in series [2] it was 130.2 nm.
